Measured values published in patent publication US8999983B2, “Modulators of Hec1 activity and methods therefor” (Taivex Therapeutics Corporation, priority 2011, dated 2015).

What was measured:
[1] = Body weight in mouse xenograft studies; assay type: in vivo, nude mice
Method: Mouse Xenograft Studies: Xenograft studies adapted from a previous published protocol (Wu et al, Cancer Res. 2008 Oct. 15; 68(20):8393-9). Female BALB/c nude (nu/nu) mice (5-8 weeks) were obtained from Lasco (Industrial Park, Tai-Ping Area, Taichung City, Taiwan). The animals were maintained under specific pathogen-free conditions, and food and water were supplied ad libitum. Housing and all procedures involving animals were performed according to protocols approved by the IACUC in DCB. Nude mice were inoculated with 17-β-estradiol pellets 72 to 96 h before implantation of BT-474 cells. For subcutaneous implantation of BT-474 cells, cells (1×10^7 in matrix gel/animal) were injected subcutaneously into the right subaxillary region. Treatment started when average tumor volume reached about 200 mm^3; mice were treated (p.o., QD/28 cycles in total) with vehicle A (0.5% methylcellulose), or candidate compounds formulated in vehicle A (10-50 mg/kg body weight). Perpendicular diameter measurement of each tumor were made with digital calipers and the volume of the tumor calculated using formula (L×W×W)/2, in which L and W represent the length and the width, respectively. Body weights were measured three times weekly.
The in vivo effectiveness of contemplated compounds in the reduction of tumor volume in nude mice is readily apparent.
Development of resistance to treatment in advanced stage tumors is a well known phenomenon. Activity of select Hec1 inhibitor in such late stage tumors was determined by re-dosing of BT474 xenografted animals that had previously subjected to 35 days of treatment with 110095 (compound 27 of Table 1). Re-treatment with 110095 was starting on day 42 and continued for 21 days.

[2] = test system: cyclin B1 and cyclin D1; test: Immunoblot of cyclin B1 and cyclin D1; assay type: cell-based; settings: 1 μM
Method: Immunoblot Analysis: For immunoblotting experiments, cells were plated in a 6-well culture plate and cultured overnight. Cells were incubated with the test compounds for the indicated time and whole cell lysate was harvested by adding 1×SDS-PAGE Sample Buffer (62.5 mM Tris-HCl (pH 6.8 at 25° C.), 2% w/v SDS, 10% glycerol, 50 mM DTT, and 0.01% w/v bromophenol blue or phenol red). Proteins were separated by SDS-PAGE electrophoresis and transferred to PVDF membrane. Protein expression was immunoblotted using various primary antibodies and detected using Immobilon Western Chemiluminescent HRP Substrate (Millipore, Billerica Mass. 01821 USA). Antibodies used include anti-Cleaved Caspase3, (Rabbit, Cell Signaling Technology, Danvers Mass. 01923 USA); anti-PARP (Rabbit, Cell Signaling Technology, Danvers Mass. 01923 USA); anti-MCL-1 (mouse, BD Biosciences, San Jose Calif. 95131 USA); anti-XIAP (rabbit, Cell Signaling Technology, Danvers Mass. 01923 USA); anti-Bcl-2 (mouse, Santa Cruz Biotechnology, Santa Cruz Calif. 95060); anti-Cyclin BI (mouse, BD Biosciences, San Jose Calif. 95131 USA); anti-Cyclin D1 (mouse, Santa Cruz Biotechnology, Santa Cruz Calif. 95060); Anti-Nek2 (mouse, BD Biosciences, San Jose Calif. 95131 USA); Anti-HEC1, (rabbit, GeneTex, Inc., Irvine Calif. 92606 USA); and anti-actin (mouse, Millipore, Billerica Mass. 01821 USA). […]

[3] = test system: Huh-7 xenograft; test: Mouse xenograft study, Huh-7 liver cancer; assay type: in vivo; settings: Huh-7 liver cancer xenograft, nude mice
[4] = test system: cancer cells; test: DNA content analysis (propidium iodide, FACS); assay type: cell-based
Method: DNA Content Analysis: Cells were plated in a 10-cm culture plate and cultured overnight. Cells were incubated with the compound for the indicated time and collected at the indicated time points. Cells were fixed with 70% ethanol overnight, stained with propidium iodide solution (1.25 mg/ml propidium iodide (Sigma) and 20 μl/ml […] in PBS) and subjected to fluorescence activated cell sorting (FACS). The results were analyzed by Cell Quest software (BD Biosciences, San Jose Calif. 95131 USA).

[5] = test system: K562; test: Antiproliferation assay (MTS), K562 cells; assay type: cell-based; settings: Homo sapiens, K562, 96 h, Table 1, read-out: Antiproliferative IC50 K562
Procedure, shortened: (§1)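 Cells seeded after overnight attachment were treated in triplicate for 96 h at 37 °C, 5% CO2, final DMSO below 1%. Viability read by MTS absorbance; concentration-response curves fitted by linear regression against DMSO controls.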

[6] = test system: Hela; test: Antiproliferation assay (MTS), HeLa cells; assay type: cell-based; settings: Homo sapiens, 96 h, Table 1, read-out: Antiproliferative IC50 Hela
Procedure, shortened: as §1

## COCCOc1cnc(Sc2cc(C)c(-c3csc(NC(=O)c4ccncc4)n3)c(C)c2)cn1 [Compound 27, N-(4-{4-(5-(2-methoxyethoxy)pyrazin-2-ylthio)-2,6-dimethylphenyl}thiazol-2-yl)isonicotinamide]
[1]; re-treatment of late stage xenografts
  body weight: body weight remained constant
[1]; xenograft studies FIG. 7A-7D, nude mice
  body weight: body weight remained constant
[2]
  cyclin B1 and cyclin D1 levels: cyclin BI and cyclin D degradation
[3]
  xenograft tumor outgrowth: inhibition of xenograft tumor outgrowth
[4]
  sub-G1 population (apoptotic cells): increase in the sub-G1 population
[5]
  IC50: 18 nM
[6]
  IC50: 21.1 nM
